Converted amounts (≈) assume the structure as drawn. The source made the active and inactive calls. The rule behind the calls is not given here.
Tests used:
Mus musculus [1] = assay: Toxicity in C57BL/6 mouse assessed as mortality at 2 mg/kg/day, sc once daily for 7 days; format: organism-based; parameters: route subcutaneous; settings: in vivo, 168 h
[2] = test system: Japanese encephalitis virus; assay: Antiviral activity against Japanese encephalitis virus Beijing infected in low viral dose challenge C57BL/6 mouse model assessed as survival rate at 4 mg/kg/day, sc once daily for 7 days administered 1 day before infection measured after 28 days post infection relative to control; format: functional; settings: route subcutaneous
Punta Toro virus = assay: Antiviral activity against Punta Toro virus Adames infected in african green monkey Vero cells assessed as inhibition of virus-induced cytopathic effect by MTT assay; format: functional, organism-based
Mus musculus [3] = assay: Toxicity in C57BL/6 mouse assessed as mortality at 3 mg/kg/day, ip twice daily for 9 days; format: organism-based; parameters: route intraperitoneal; settings: in vivo, 216 h
Mus musculus [4] = assay: Toxicity in C57BL/6 mouse assessed as mortality at 4 mg/kg/day, sc once daily for 7 days; format: organism-based; parameters: route subcutaneous; settings: in vivo, 168 h
Mus musculus [5] = assay: Toxicity in C57BL/6 mouse assessed as mortality at 4 mg/kg/day, ip twice daily for 9 days; format: organism-based; parameters: route intraperitoneal; settings: in vivo, 216 h
[6] = test system: Japanese encephalitis virus; assay: Antiviral activity against Japanese encephalitis virus Beijing infected in high viral dose challenge C57BL/6 mouse model assessed as survival rate at 6 mg/kg/day, ip twice daily for 9 days administered 1 day before infection measured after 28 days post infection relative to control; format: functional; settings: route intraperitoneal
Mus musculus [7] = assay: Toxicity in C57BL/6 mouse assessed as average day of death at 6 mg/kg/day, sc once daily for 7 days; format: organism-based; parameters: route subcutaneous; settings: in vivo, 168 h
[8] = test system: Japanese encephalitis virus; assay: Antiviral activity against Japanese encephalitis virus Beijing infected in high viral dose challenge C57BL/6 mouse model assessed as average day of death at 3 mg/kg/day, ip twice daily for 9 days administered 1 day before infection measured after 28 days post infection; format: functional; settings: route intraperitoneal
[9] = test system: Japanese encephalitis virus; assay: Antiviral activity against Japanese encephalitis virus Beijing infected in high viral dose challenge C57BL/6 mouse model assessed as average day of death at 2 mg/kg/day, ip twice daily for 9 days administered 1 day before infection measured after 28 days post infection; format: functional; settings: route intraperitoneal
Mus musculus [10] = assay: Toxicity in C57BL/6 mouse assessed as change in body weight at 3 mg/kg/day, ip twice daily for 9 days administered 1 day before infection measured after 28 days post infection; format: organism-based; parameters: route intraperitoneal; settings: in vivo, 672 h
[11] = test system: Sandfly fever Sicilian virus; assay: Antiviral activity against Sandfly fever sicilian virus infected in african green monkey Vero cells assessed as inhibition of virus-induced cytopathic effect by MTT assay; format: functional, organism-based; settings: vero
Mus musculus [12] = assay: Toxicity in C57BL/6 mouse assessed as mortality at 6 mg/kg/day, sc once daily for 7 days; format: organism-based; parameters: route subcutaneous; settings: in vivo, 168 h
[13] = test system: Japanese encephalitis virus; assay: Antiviral activity against Japanese encephalitis virus Beijing infected in low viral dose challenge C57BL/6 mouse model assessed as average day of death at 2 mg/kg/day, sc once daily for 7 days administered 1 day before infection measured after 28 days post infection; format: functional; settings: route subcutaneous
Mus musculus [14] = assay: Toxicity in C57BL/6 mouse assessed as change in body weight at 2 mg/kg/day, ip twice daily for 9 days administered 1 day before infection measured after 28 days post infection; format: organism-based; parameters: route intraperitoneal; settings: in vivo, 672 h
Yellow fever virus = assay: Antiviral activity against Yellow fever virus Ashibi infected in african green monkey Vero cells assessed as inhibition of virus-induced cytopathic effect by MTT assay; format: functional, organism-based; settings: Yellow fever virus, Ashibi, Vero; read-out: IC50
[15] = test system: Japanese encephalitis virus; assay: Antiviral activity against Japanese encephalitis virus Beijing infected in high viral dose challenge C57BL/6 mouse model assessed as average day of death at 5 mg/kg/day, ip twice daily for 9 days administered 1 day before infection measured after 28 days post infection; format: functional; settings: route intraperitoneal
dengue virus type 4 = assay: Antiviral activity against Dengue virus type 4 infected in african green monkey Vero cells after 6 days by plaque reduction assay; format: functional, organism-based; settings: Dengue virus, Vero, 144 h; read-out: IC50
Mus musculus [16] = assay: Toxicity in C57BL/6 mouse assessed as mortality at 2 mg/kg/day, ip twice daily for 9 days; format: organism-based; parameters: route intraperitoneal; settings: in vivo, 216 h
[17] = Therapeutic index, ratio of TC50 for african green monkey Vero cells to IC50 for Yellow fever virus Ashibi; format: cell-based; settings: read-out: TI
Rift Valley fever virus = assay: Antiviral activity against Rift Valley fever virus infected in african green monkey Vero cells after 6 days by plaque reduction assay; format: functional, organism-based; settings: Rift Valley fever virus, Vero, 144 h; read-out: IC50
[18] = test system: Japanese encephalitis virus; assay: Antiviral activity against Japanese encephalitis virus Beijing infected in high viral dose challenge C57BL/6 mouse model assessed as average day of death at 8 mg/kg/day, ip twice daily for 9 days administered 1 day before infection measured after 28 days post infection; format: functional; settings: route intraperitoneal
Mus musculus [19] = assay: Toxicity in C57BL/6 mouse assessed as change in body weight at 6 mg/kg/day, ip twice daily for 9 days administered 1 day before infection measured after 28 days post infection; format: organism-based; parameters: route intraperitoneal; settings: in vivo, 672 h
Mus musculus [20] = assay: Toxicity in C57BL/6 mouse assessed as change in body weight at 4 mg/kg/day, ip twice daily for 9 days administered 1 day before infection measured after 28 days post infection; format: organism-based; parameters: route intraperitoneal; settings: in vivo, 672 h
[21] = test system: Japanese encephalitis virus; assay: Antiviral activity against Japanese encephalitis virus Beijing infected in high viral dose challenge C57BL/6 mouse model assessed inhibition of virus-induced mortality at 4 mg/kg/day, ip twice daily for 9 days administered 1 day before infection measured after 28 days post infection; format: functional, organism-based
[22] = Therapeutic index, ratio of TC50 for african green monkey Vero cells to IC50 for Dengue type 4 virus; format: cell-based; settings: read-out: TI
[23] = test system: Japanese encephalitis virus; assay: Antiviral activity against Japanese encephalitis virus Beijing infected in low viral dose challenge C57BL/6 mouse model assessed as survival rate at 6 mg/kg/day, sc once daily for 7 days administered 1 day before infection measured after 28 days post infection relative to control; format: functional; settings: route subcutaneous
Mus musculus [24] = assay: Toxicity in C57BL/6 mouse assessed as change in body weight at 5 mg/kg/day, ip twice daily for 9 days administered 1 day before infection measured after 28 days post infection; format: organism-based; parameters: route intraperitoneal; settings: in vivo, 672 h
Mus musculus [25] = assay: Toxicity in C57BL/6 mouse assessed as change in body weight at 8 mg/kg/day, ip twice daily for 9 days administered 1 day before infection measured after 28 days post infection; format: organism-based; parameters: route intraperitoneal; settings: in vivo, 672 h
[26] = test system: Japanese encephalitis virus; assay: Antiviral activity against Japanese encephalitis virus Nakayama infected in african green monkey Vero cells assessed as inhibition of virus-induced cytopathic effect by MTT assay; format: functional, organism-based; settings: Japanese encephalitis virus, Nakayama, Vero; read-out: IC50
[27] = Therapeutic index, ratio of TC50 for african green monkey Vero cells to IC50 for Japanese encephalitis virus Nakayama; format: cell-based; settings: read-out: TI
[28] = test system: Japanese encephalitis virus; assay: Antiviral activity against Japanese encephalitis virus Beijing infected in low viral dose challenge C57BL/6 mouse model assessed as inhibition of virus-induced mortality at 4 mg/kg/day, sc once daily for 7 days administered 1 day before infection measured after 28 days post infection; format: functional, organism-based
[29] = test system: Japanese encephalitis virus; assay: Antiviral activity against Japanese encephalitis virus Beijing infected in high viral dose challenge C57BL/6 mouse model assessed as average day of death at 4 mg/kg/day, ip twice daily for 9 days administered 1 day before infection measured after 28 days post infection; format: functional; settings: route intraperitoneal
[30] = test system: Japanese encephalitis virus; assay: Antiviral activity against Japanese encephalitis virus Beijing infected in high viral dose challenge C57BL/6 mouse model assessed as average day of death at 6 mg/kg/day, ip twice daily for 9 days administered 1 day before infection measured after 28 days post infection; format: functional; settings: route intraperitoneal
[31] = test system: Japanese encephalitis virus; assay: Antiviral activity against Japanese encephalitis virus Beijing infected in low viral dose challenge C57BL/6 mouse model assessed as average day of death at 4 mg/kg/day, sc once daily for 7 days administered 1 day before infection measured after 28 days post infection; format: functional; settings: route subcutaneous
[32] = Therapeutic index, ratio of TC50 for african green monkey Vero cells to IC50 for Rift valley fever virus; format: cell-based; settings: read-out: TI
[33] = test system: Japanese encephalitis virus; assay: Antiviral activity against Japanese encephalitis virus Beijing infected in low viral dose challenge C57BL/6 mouse model assessed as average day of death at 6 mg/kg/day, sc once daily for 7 days administered 1 day before infection measured after 28 days post infection; format: functional; settings: route subcutaneous

O=C1N[C@H]2[C@H](O)[C@H](O)[C@@H](O)[C@H](O)[C@@H]2c2cc3c(c(O)c21)OCO3 [PANCRATISTATIN]
Activity (Mus musculus [1]): Non-toxic
Activity [2]: 30%
inhibition (INH) (Punta Toro virus): 25%
Activity (Mus musculus [3]): Non-toxic
Activity (Mus musculus [4]): Not Active
Activity (Mus musculus [5]): Non-toxic
Activity [6]: 50%
AD50 (Mus musculus [7]): 2.7 days
Activity [8]: 12.6 days
Activity [9]: 12.6 days
Activity (Mus musculus [10]): 2.1
IC50 [11]: Not Active
Activity (Mus musculus [12]): Non-toxic
Activity [13]: 16.3 days
Activity (Mus musculus [14]): 2.8
IC50 (Yellow fever virus): 0.016 µg/mL (≈ 0.0492 µM)
Activity [15]: 10.4 days
IC50 (dengue virus type 4): 0.063 µg/mL (≈ 0.194 µM)
Activity (Mus musculus [16]): Non-toxic
selectivity ratio [17]: 4.9
IC50 (Rift Valley fever virus): 0.16 µg/mL (≈ 0.492 µM)
Activity [18]: 12.9 days
Activity (Mus musculus [19]): 1.3
Activity (Mus musculus [20]): 1.8
Activity [21]: inactive
selectivity ratio [22]: 8
Activity [23]: 90%
Activity (Mus musculus [24]): 1.4
Activity (Mus musculus [25]): 1.5
IC50 [26]: 0.022 µg/mL (≈ 0.0676 µM)
selectivity ratio [27]: 4.2
Activity [28]: Active
Activity [29]: 12.3 days
Activity [30]: 11.8 days
Activity [31]: 15.4 days
selectivity ratio [32]: 3.1
Activity [33]: 15 days

— ChEMBL document CHEMBL1150051, “Antiviral (RNA) activity of selected Amaryllidaceae isoquinoline constituents and synthesis of related substances” (J Nat Prod, 1992)
